Measurements as given in patent US20240024494A1, “SMALL-MOLECULE CONJUGATE AND USE THEREOF” (SHANGHAI MEWSGEN BIOTECHNOLOGY CO., LTD, priority 2020, published 2024).

Tested on: tumor cell strains (colon cancer, pancreatic cancer, esophageal squamous carcinoma, gastric cancer, glioma)
Assay: Summary of in-vitro proliferation inhibition on tumor cell strains (Examples 19-21)
Type: cell-based, human
Method: A part of the compounds prepared in the examples of the present disclosure were subjected to a tumor cell proliferation inhibition test by using a CCK-8 method. A cell line HCT116 (human colon carcinoma cells) and SW1990 (human pancreatic carcinoma cells) were purchased from Shanghai Meixuan Technology Co., Ltd. Samples (a part of the compounds prepared in the examples) were dissolved in DMSO (Merck), prepared into a concentration of 10 mM, and finally triply diluted in DMEM or McCoy's 5A 1640 medium to 8 concentration gradients. A cell culture solution was collected when a cell culture met a test requirement, 10 μL of the cell culture solution was uniformly coated on a cell counting plate, cells were counted for 3 times under a microscope, and a cell density was calculated by taking an average value; and a 96-well plate (Corning, #3599) was taken, 200 μL of the cell culture solution was added into each well for cell inoculation at a cell concentration of 6×10^3 cells per well, and the inoculated 96-well plate was incubated in a cell incubator containing 5% CO2 at 37° C. for 24 h. An old culture medium was removed by suction, 200 μL of the triply diluted sample DMEM or McCoy's 5A 1640 medium at an initial concentration of 10 μmol/L was added to each well, the DMSO content was controlled to be 1%, three duplicate wells were set, PBS was used as a blank control, and the plate was incubated in the incubator for 72 h. The original DMEM or McCoy's 5A 1640 medium in the 96-well plate and a PBS buffer in a final row were sucked out, a prepared CCK-8 solution (90% DMEM or McCoy's 5A 1640 medium+10% CCK-8) was added, the mixture was incubated in an incubator, and an absorbance was read by using a Biotek microplate reader. Cell growth inhibition rate IC %=(blank control well OD value−administration well OD value)/blank control well OD value×100%.
In-vitro activity test: 100 μL of a cell suspension at a concentration of 4-5×10^4/mL was added to each well of a 96-well plate, and placed in a 5% CO2 incubator at 37° C. After 24 h, a sample solution was added at 10 μL/well, double duplicate wells were set, and a reaction was performed at 37° C. with 5% CO2 for 72 h. 20 μL of 5 mg/ml of an MTT solution was added into each well and reacted for 4 h, a dissolving solution was added at 100 μL/well, the mixture was placed in an incubator, and after dissolution, an OD value at 570 nm was measured with a full-wavelength multifunctional microplate reader. An inhibition rate (IR) and a median inhibitory concentration (IC50) were calculated by using an Excel software.
A part of the compounds prepared in the examples of the present disclosure were subjected to a tumor cell proliferation inhibition test by using a CCK-8 method. Cell lines HCT116 (human colon cancer cells), MGC803 (human gastric cancer cells), and MIA PACA-2 (human pancreatic cancer cells) were purchased from Shanghai Meixuan Technology Co., Ltd. Samples (a part of the compounds prepared in the examples) were dissolved in DMSO (Merck), prepared into a concentration of 10 mM, and finally triply diluted in DMEM or McCoy's 5A 1640 medium to 8 concentration gradients. A cell culture solution was collected when a cell culture met a test requirement, 10 μL of the cell culture solution was uniformly coated on a cell counting plate, cells were counted for 3 times under a microscope, and a cell density was calculated by taking an average value; and a 96-well plate (Corning, #3599) was taken, 200 μL of the cell culture solution was added into each well for cell inoculation at a cell concentration of 6×10^3 cells per well, and the inoculated 96-well plate was incubated in a cell incubator containing 5% CO2 at 37° C. for 24 h. […]

In the case of `COc1cc(C(=O)NCCOCCOCCOCCOCCC(=O)N[C@@H](C(=O)N[C@@H](CCCNC(N)=O)C(=O)Nc2ccc(COC(=O)N3CCN(C(=O)O[C@H]4CC[C@@]5(C)[C@H](CC[C@@H]6[C@@H]5[C@H](O)C(=O)[C@]5(C)[C@@H](c7ccc(=O)oc7)CC[C@]65O)C4)CC3)cc2)C(C)C)ccc1NC(=O)[C@@H]1N[C@@H](CC(C)(C)C)[C@](C#N)(c2ccc(Cl)cc2F)[C@H]1c1cccc(Cl)c1F` [Compound I-1], the “Proliferation inhibition activities IC50 on most tumor cell strains (in words)” value is reported as “between several to hundreds of nanomoles”.
